{"source": "patent US20190247376A1", "about": "“NICOTINIC ACETYLCHOLINE RECEPTOR AGONIST ATTENUATES ILC2-DEPENDENT AIRWAY HYPERREACTIVITY” (University of Southern California, priority 2016, published 2019)", "key": {"lung ILC2s": {"system": "lung ILC2s", "assay": "Flow cytometry of proliferation, transcription factor and signalling markers in lung ILC2s", "type": "cell-based, mouse", "from_the_text": "FIGS. 5A-5F: Cholinergic signal attenuates ILC2 proliferation and GATA3 expression. (FIG. 5A) Mean fluorescence intensity of Ki67 and percentage of Ki67+ cells in isolated lung ILC2s, stimulated with IL-33 in the absence and presence of α7nAChR. (FIG. 5B) Mean fluorescence intensity of GATA3 in isolated lung ILC2s, stimulated with IL-33 in the absence and presence of α7nAChR. One representative experiment of two is shown (n=5; Student's t test *, p<0.05; **, p<0.01; ***p<0.001). […] FACS-purified ILC2s from WT mice challenged with rm-IL-33 with or without α7nAChR agonist as described in FIG. 3A were quantified by NanoString nCounter technology. Data range from −1 to +1 for the most reduced and most increased gene expression, respectively. (FIG. 5D) Expression of NF-κB p65 in isolated lung ILC2s from mice challenged with IL-33 with (dotted line) or without (thick line) α7nAChR agonist. The level of isotype-matched stain control is shown as a gray-filled histogram. (FIG. 5E) Expression of phosphorylated IKKα/β (Ser176/180) in isolated lung ILC2s stimulated with IL-33, with (dotted line) or without (thick line) α7nAChR agonist for 24 hours. The level of isotype-matched stain control is shown as a gray-filled histogram. (FIG. 5F) Mean fluorescence intensity of phosphorylated IKKα/β with or without α7nAChR agonist.\nFIGS. 9A-9C: Effect of α7nAChR agonist on some marker expressions by ILC2s. A cohort of BALB/cByJ mice were intranasally challenged with rm-IL-33 (0.5 μg) with or without α7nAChR agonist (125 μg) for three consecutive days. Histogram and MFI of CD25 (FIG. 9A), CD127 (FIG. 9B) and ST2 (FIG. 9C) in isolated lung ILC2s. Data are representative of at least two independent experiments and are presented as means±SEM (n=4; Student's t test *, p<0.05).\nBiotinylated anti-mouse lineage (CD3e (145-2C11), CD45R (RA3-3B2), Gr-1 (RB6-8C5), CD11c (N418), CD11b (M1/70), Ter119 (TER-119), NK1.1 (PK136), TCR-β (H57-597), TCR-γδ (GL3), and FcεRIα (MAR-1), Streptavidin-FITC, FITC anti-mouse CD3 (145-2C11), BV510 anti-mouse CD4 (RM4-5), APC-Cy7 anti-mouse CD25 (PC61), PE anti-mouse CD25 (PC61), BV421 anti-mouse CD25 (PC61), BV510 anti-mouse CD90.2 (53-2.1), APC anti-mouse CD127 (A7R34), PE-Cy7 anti-mouse CD127 (A7R34), FITC anti-mouse CD45 (30F-11), PE/Cy7 anti-mouse CD45 (30-F11), PE anti-mouse IL-5 (TRFK5), BV421 anti-mouse GATA3 (16E10A23), 7-AAD Viability staining solution, purchased from BioLegend (San Diego, Calif.). PE anti-mouse ST2 (IL-33R, RMST2-2), PerCP-eFluor710 anti-Mouse ST2 (RMST2-2), Streptavidin APC-eFluor780, Alexa Fluor647 labeled anti-IL-4 (clone 11B11), eFluor 450 anti-mouse CD45 (30F-11), eFluor450 anti-CD44 (clone IM7), eFluor-660 anti-mouse Ki-67 (SollA15), PE/Cy7 anti-mouse IL-13 (eBio13A), anti-mouse BCL-2 (10C4), were purchased from eBioscience. Alexa Fluor 488 anti-mouse p65-NF-κB (532301) was purchased from R&D Systems (dilution 1:50). Alexa Fluor 647 conjugated α-bungarotoxin (Invitrogen, San Diego, Calif.). PE anti-mouse Phospho-IKKα/β (Ser 176/180) (16A6) was purchased from Cell Signaling Technology (dilution 1:50). PE anti-rat α7nAChR (319) was purchased from Santa Cruz Biotechnology (dilution 1:50). This antibody has been used to identify this receptor previously in several studies^69. Lineage marker antibodies were used at the dilution of 1:400, unless mentioned otherwise other antibodies were used at the dilution of 1:200.\nIntracellular staining was performed using BD Cytofix/Cytoperm kit (BD Bioscience, San Jose, Calif.) according to the manufacturer's instructions. For analysis of GATA3 and Ki-67 expression, freshly isolated cells were fixed and permeabilized using Fixation/Permeabilization buffer kit (eBioscience) according to the manufacturer's instructions and as previously described^70."}, "α7 subtype of nAChR": {"target": "α7 subtype of nAChR (Homo sapiens, UniProt P36544)", "sequence (P36544 23-502)": "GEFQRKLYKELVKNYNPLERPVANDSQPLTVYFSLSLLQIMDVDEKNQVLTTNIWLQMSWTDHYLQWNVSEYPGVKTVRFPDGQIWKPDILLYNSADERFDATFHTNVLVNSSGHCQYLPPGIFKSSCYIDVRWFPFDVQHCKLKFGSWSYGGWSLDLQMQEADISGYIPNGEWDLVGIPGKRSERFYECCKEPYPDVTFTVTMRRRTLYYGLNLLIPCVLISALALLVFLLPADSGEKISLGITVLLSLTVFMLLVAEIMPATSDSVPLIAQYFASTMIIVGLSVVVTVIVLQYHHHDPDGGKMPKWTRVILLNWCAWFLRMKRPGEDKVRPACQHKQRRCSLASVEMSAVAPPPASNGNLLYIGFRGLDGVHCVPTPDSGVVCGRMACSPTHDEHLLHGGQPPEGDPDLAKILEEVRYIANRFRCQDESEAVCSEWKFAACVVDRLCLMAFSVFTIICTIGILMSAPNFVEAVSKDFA", "conditions": "cited from earlier work"}}, "data": [{"smiles": "COc1ccc(/C=C2\\CCCN=C2c2cccnc2)c(OC)c1", "note": "[GTS-21, 3-[(3E)-3-[(2,4-dimethoxyphenyl)methylidene]-5,6-dihydro-4H-pyridin-2-yl]pyridine]", "values": [{"measurement": "expression of anti-apoptotic factor Bcl-2 on ILC2s", "setting": "lung ILC2s; in vivo data", "value": "unaffected"}, {"measurement": "GATA-3 expression in ILC2s", "setting": "lung ILC2s; isolated lung ILC2s, IL-33", "value": "significantly inhibits"}, {"measurement": "proliferation rate of pulmonary ILC2s (Ki-67 levels)", "setting": "lung ILC2s; isolated lung ILC2s, IL-33", "value": "significantly decreased"}, {"measurement": "NF-κB p65 expression in ILC2s", "setting": "lung ILC2s; lung ILC2s from mice challenged with IL-33", "value": "reduced"}, {"measurement": "phosphorylated IKKα/β (Ser176/180) expression in ILC2s", "setting": "lung ILC2s; lung ILC2s stimulated with IL-33, 24 hours", "value": "reduced"}, {"measurement": "activation of nAChR subtypes", "setting": "α7 subtype of nAChR", "value": "activates only the α7 subtype to a significant extent"}]}]}
